In patent US10752581B2, “4-((2-hydroxy-3-methoxybenzyl)amino)benzenesulfonamide derivatives as potent and selective inhibitors of 12-lipoxygenase” (Eastern Virginia Medical School, priority 2013, dated 2020):

How the values were obtained:
[1] = tested on: FcγRIIa-stimulated platelets; assay: Calcium mobilization after FcγRIIa cross-linking; format: cell-based, human; conditions: ML355 (20 μM); compared to DMSO treated platelets
Description: (§1) FcγRIIa-mediated platelet activation: FcγRIIa-mediated platelet activation was initiated by two distinct models; either 1) FcγRIIa antibody cross-linking or 2) CD9 monoclonal antibody stimulation. To cross-link FcγRIIa, washed platelets were incubated with IV.3, an FcγRIIa mouse monoclonal antibody, for one minute followed by the addition of a goat anti-mouse (GAM) IgG antibody to cross-link FcγRIIa. The concentration of FcγRIIa cross-linking antibodies used for each experiment is indicated in the text. Alternatively, washed human platelets were stimulated with an anti-CD9 monoclonal antibody to activate FcγRIIa mediated signaling. Due to inter-individual variability in anti-CD9 response, a range of anti-CD9 concentration (0.25-1 μg/ml) was used to achieve an aggregation of EC80. In studies using the 12-LOX inhibitor (ML355), washed platelets were incubated with either ML355 (20 μM), or DMSO (vehicle control) for 15 minutes prior to FcγRIIa stimulation.
Calcium mobilization: Intracellular calcium release was measured as previously described. […] Platelets were stimulated by FcγRIIa antibody cross-linking and fluorescence intensity was measured in real-time by flow cytometry. Data is reported as the fold change in the fluorescence intensity comparing maximum fluorescence intensity relative to fluorescence intensity prior to platelet stimulation.

[2] = tested on: FcγRIIa-stimulated platelets; assay: αIIbβ3 activation after FcγRIIa stimulation; format: cell-based, human; conditions: ML355 pre-treatment; IV.3 + GAM
Source text: (§2) Preparation of washed human platelets: Prior to blood collection written informed consent was obtained from all volunteers. Washed platelets were isolated from the blood of healthy volunteers as previously described (14). Washed platelets were resuspended in tyrodes buffer at 3.0×10^8 platelets/mL unless otherwise indicated.
as §1, with “Due to inter-individual variability in anti-CD9 response, a range of anti-CD9 concentration (0.25-1 μg/ml) was used to achieve an aggregation of EC80. In studies using the 12-LOX inhibitor (ML355), washed platelets were incubated with either ML355 (20 μM), or DMSO (vehicle control) for 15 minutes prior to FcγRIIa stimulation.” left out
Alpha granule release and αIIbβ3 activation: Prior to stimulation, washed platelets were pre-incubated with a either FITC-conjugated P-selectin antibody or FITC-conjugated PAC-1, an antibody specific for the active conformation of αIIb3. […] Fluorescence intensity was measured by flow cytometry. Results are reported as mean fluorescence intensity.

[3] = tested on: FcγRIIa-stimulated platelets; assay: FcγRIIa phosphorylation (immunoprecipitation, Western blot); format: cell-based, human; conditions: ML355 (20 μM); IV.3+GAM
Description: FIGS. 15A-15B show the role of 12-LOX in regulating the FcγRIIa signaling complex. Washed human platelets were pre-treated with ML355 (20 μM) or vehicle control prior to IV.3 and GAM stimulation. (FIG. 15A) Immunoprecipitation of FcγRIIa at 15, 30, and 60 seconds post crosslinking and measured for phosphorylation via Western blot. (FIG. 15B) Platelets were lysed following FcγRIIa cross-linking in the presence of ML355 or DMSO were immunoblotted for active (pY323) and total Syk.
To investigate whether 12-LOX directly regulated FcγRIIa phosphorylation, FcγRIIa was immunoprecipitated from IV.3+GAM-stimulated platelets treated with ML355 or DMSO and immunoblotted for phosphorylation of FcγRIIa.
as §1, with “Due to inter-individual variability in anti-CD9 response, a range of anti-CD9 concentration (0.25-1 μg/ml) was used to achieve an aggregation of EC80. In studies using the 12-LOX inhibitor (ML355), washed platelets were incubated with either ML355 (20 μM), or DMSO (vehicle control) for 15 minutes prior to FcγRIIa stimulation.” left out

[4] = in vivo; conditions: male, CD1, mouse
[5] = tested on: FcγRIIa-stimulated platelets; assay: Rap1 activation after FcγRIIa stimulation; format: cell-based, human; conditions: ML355 pre-treatment
Source text: as §2
as §1, with “FcγRIIa stimulation. […]” for “FcγRIIa stimulation.”

For `COc1cccc(CNc2ccc(S(=O)(=O)Nc3nc4ccccc4s3)cc2)c1O` [Compound 35, N-(benzo[d]thiazol-2-yl)-4-((2-hydroxy-3-methoxybenzyl)amino)benzenesulfonamide], the “intracellular Ca2+ release” value [1] was “decrease in intracellular Ca^2+”, the αIIbβ3 activation [2] was “significant attenuated along multiple signaling steps” and the FcγRIIa phosphorylation [3] was “No difference in FcγRIIa phosphorylation”. The half-life [4] was 2.9 h and the Rap1 activation [5] was “failed to activate Rap1”.
